pIC50: −log10 of the molar value.
Legend:
LOX IMVI [1] = assay: Growth inhibition of human LOXIMVI cells assessed as cell growth at 10 uM after 48 hrs by sulforhodamine B assay; assay type: functional; details: read-out: Activity
OVCAR-5 = assay: Growth inhibition of human OVCAR5 cells after 48 hrs by sulforhodamine B assay; assay type: functional; details: OVCAR-5, 48 h
OVCAR-4 = assay: Growth inhibition of human OVCAR4 cells after 48 hrs by sulforhodamine B assay; assay type: functional; details: OVCAR-4, 48 h
ACHN = assay: Growth inhibition of human ACHN cells assessed as cell growth at 10 uM after 48 hrs by sulforhodamine B assay; assay type: functional; details: read-out: Activity
SK-MEL-2 = assay: Growth inhibition of human SK-MEL-2 cells assessed as cell growth at 10 uM after 48 hrs by sulforhodamine B assay; assay type: functional; details: SK-MEL-2, 48 h, read-out: Activity
Malme-3M [2] = assay: Growth inhibition of human MALME-3M cells after 48 hrs by sulforhodamine B assay; assay type: functional
UACC-62 = assay: Growth inhibition of human UACC62 cells assessed as cell growth at 10 uM after 48 hrs by sulforhodamine B assay; assay type: functional; details: UACC-62, 48 h, read-out: Activity
HCT-116 = assay: Growth inhibition of human HCT116 cells assessed as cell growth at 10 uM after 48 hrs by sulforhodamine B assay; assay type: functional; details: HCT-116, 48 h, read-out: Activity
NCI-H522 = assay: Growth inhibition of human NCI-H522 cells after 48 hrs by sulforhodamine B assay; assay type: functional; details: NCI-H522, 48 h
SK-OV-3 = assay: Growth inhibition of human SKOV3 cells after 48 hrs by sulforhodamine B assay; assay type: functional; details: SK-OV-3, 48 h
MCF7 = assay: Growth inhibition of human MCF7 cells after 48 hrs by sulforhodamine B assay; assay type: functional; details: MCF7, 48 h
M14 = assay: Growth inhibition of human M14 cells after 48 hrs by sulforhodamine B assay; assay type: functional; details: M14, 48 h
Malme-3M [3] = assay: Growth inhibition of human MALME-3M cells assessed as cell growth at 10 uM after 48 hrs by sulforhodamine B assay; assay type: functional; details: read-out: Activity
786-0 = assay: Growth inhibition of human 786-0 cells assessed as cell growth at 10 uM after 48 hrs by sulforhodamine B assay; assay type: functional; details: 786-0, 48 h, read-out: Activity
IGROV-1 [4] = assay: Growth inhibition of human IGROV1 cells assessed as cell growth at 10 uM after 48 hrs by sulforhodamine B assay; assay type: functional; details: IGROV-1, 48 h, read-out: Activity
MDA-MB-435 = assay: Growth inhibition of human MDA-MB-435 cells assessed as cell growth at 10 uM after 48 hrs by sulforhodamine B assay; assay type: functional; details: MDA-MB-435, 48 h, read-out: Activity
SF-295 = assay: Growth inhibition of human SF295 cells after 48 hrs by sulforhodamine B assay; assay type: functional, cell-based; details: SF-295, 48 h
SW-620 = assay: Growth inhibition of human SW620 cells assessed as cell growth at 10 uM after 48 hrs by sulforhodamine B assay; assay type: functional; details: SW-620, 48 h, read-out: Activity
PC-3 = assay: Growth inhibition of human PC3 cells after 48 hrs by sulforhodamine B assay; assay type: functional, cell-based; details: PC-3, 48 h
NCI-H226 = assay: Growth inhibition of human NCI-H226 cells after 48 hrs by sulforhodamine B assay; assay type: functional; details: NCI-H226, 48 h
SF-268 [5] = assay: Growth inhibition of human SF268 cells assessed as cell growth at 10 uM after 48 hrs by sulforhodamine B assay; assay type: functional; details: SF-268, 48 h, read-out: Activity
CCRF-CEM = assay: Growth inhibition of human CCRF-CEM cells after 48 hrs by sulforhodamine B assay; assay type: functional
SN12C = assay: Growth inhibition of human SN12C cells after 48 hrs by sulforhodamine B assay; assay type: functional
[6] = Growth inhibition of human Hs 578T cells after 48 hrs by sulforhodamine B assay; assay type: functional
UO-31 = assay: Growth inhibition of human UO31 cells assessed as cell growth at 10 uM after 48 hrs by sulforhodamine B assay; assay type: functional; details: UO-31, 48 h, read-out: Activity
LOX IMVI [7] = assay: Growth inhibition of human LOXIMVI cells after 48 hrs by sulforhodamine B assay; assay type: functional
NCI-H460 = assay: Growth inhibition of human NCI-H460 cells after 48 hrs by sulforhodamine B assay; assay type: functional; details: NCI-H460, 48 h
NCI-H23 = assay: Growth inhibition of human NCI-H23 cells assessed as cell growth at 10 uM after 48 hrs by sulforhodamine B assay; assay type: functional; details: NCI-H23, 48 h, read-out: Activity
IGROV-1 [8] = assay: Growth inhibition of human IGROV1 cells after 48 hrs by sulforhodamine B assay; assay type: functional; details: IGROV-1, 48 h
SNB-75 = assay: Growth inhibition of human SNB75 cells after 48 hrs by sulforhodamine B assay; assay type: functional; details: SNB-75, 48 h
A498 = assay: Growth inhibition of human A498 cells after 48 hrs by sulforhodamine B assay; assay type: functional, cell-based; details: A498, 48 h
HOP-62 = assay: Growth inhibition of human HOP62 cells after 48 hrs by sulforhodamine B assay; assay type: functional; details: HOP-62, 48 h
SF-268 [9] = assay: Growth inhibition of human SF268 cells after 48 hrs by sulforhodamine B assay; assay type: functional; details: SF-268, 48 h
HOP-92 = assay: Growth inhibition of human HOP92 cells after 48 hrs by sulforhodamine B assay; assay type: functional, cell-based; details: HOP-92, 48 h
[10] = read-out: LC50 (the source's name)

COc1cc(-c2nn(-c3cccc(NC(=O)Nc4ccc(Cl)c(C(F)(F)F)c4)c3)cc2-c2ccncc2)ccc1Cl
growth at 10 µM (LOX IMVI [1]): 1.06% | GI50 (OVCAR-5): 3.09 µM | LC50 (concentration killing 50% of cells) (OVCAR-5): > 32.5 µM | TGI (OVCAR-5): 11 µM | GI50 (OVCAR-4): 1.29 µM | LC50 (concentration killing 50% of cells) (OVCAR-4): > 32.5 µM | TGI (OVCAR-4): 25.6 µM | growth at 10 µM (ACHN): 9.33% | growth at 10 µM (SK-MEL-2): -57.8% | GI50 (Malme-3M [2]): 0.838 µM | LC50 (concentration killing 50% of starting cells) (Malme-3M [2]): > 32.5 µM | TGI (Malme-3M [2]): 2.35 µM | growth at 10 µM (UACC-62): -43.8% | growth at 10 µM (HCT-116): 5.3% | GI50 (NCI-H522): 1.14 µM | LC50 (concentration killing 50% of cells) (NCI-H522): > 32.5 µM | TGI (NCI-H522): 6.06 µM | GI50 (SK-OV-3): 1.45 µM | TGI (SK-OV-3): 13 µM | CC50 (SK-OV-3; [10]): > 32.5 µM | GI50 (MCF7): 0.919 µM | LC50 (MCF7): > 32.5 µM | TGI (MCF7): > 32.5 µM | GI50 (M14): 1.08 µM | LC50 (concentration killing 50% of cells) (M14): 19.1 µM | TGI (M14): 3.71 µM | growth at 10 µM (Malme-3M [3]): -14.9% | growth at 10 µM (786-0): 15.1% | growth at 10 µM (IGROV-1 [4]): 25.6% | growth at 10 µM (MDA-MB-435): -52.3% | GI50 (SF-295): 0.84 µM | pIC50 (SF-295): 6.08 | TGI (SF-295): 2.54 µM | CC50 (SF-295; [10]): 14.9 µM | growth at 10 µM (SW-620): 15.4% | GI50 (PC-3): 0.69 µM | pIC50 (PC-3): 6.16 | TGI (PC-3): 2.45 µM | CC50 (PC-3; [10]): > 32.5 µM | GI50 (NCI-H226): 1.82 µM | TGI (NCI-H226): > 32.5 µM | CC50 (NCI-H226; [10]): > 32.5 µM | growth at 10 µM (SF-268 [5]): 13.8% | GI50 (CCRF-CEM): 0.98 µM | LC50 (CCRF-CEM): > 32.5 µM | TGI (CCRF-CEM): > 32.5 µM | GI50 (SN12C): 1.14 µM | TGI (SN12C): 9.23 µM | CC50 (SN12C; [10]): > 32.5 µM | GI50 [6]: 1.32 µM | TGI [6]: 18.3 µM | CC50 [6, 10]: > 32.5 µM | growth at 10 µM (UO-31): 11% | GI50 (LOX IMVI [7]): 1.17 µM | LC50 (LOX IMVI [7]): 17.9 µM | TGI (LOX IMVI [7]): 4.61 µM | GI50 (NCI-H460): 1.11 µM | LC50 (NCI-H460): > 32.5 µM | TGI (NCI-H460): 4.79 µM | growth at 10 µM (NCI-H23): 5.69% | GI50 (IGROV-1 [8]): 1.2 µM | LC50 (concentration killing 50% of cells) (IGROV-1 [8]): > 32.5 µM | TGI (IGROV-1 [8]): 4.22 µM | GI50 (SNB-75): 1.28 µM | LC50 (lethal concentration, 50% net cell kill) (SNB-75): > 32.5 µM | TGI (SNB-75): 10.3 µM | GI50 (A498): 0.837 µM | pIC50 (A498): 6.08 | TGI (A498): 6.97 µM | CC50 (A498; [10]): > 32.5 µM | GI50 (HOP-62): 1.31 µM | TGI (HOP-62): 6.49 µM | CC50 (HOP-62; [10]): 31 µM | GI50 (SF-268 [9]): 1.46 µM | TGI (SF-268 [9]): 9.14 µM | CC50 (SF-268 [9]; [10]): > 32.5 µM | GI50 (HOP-92): 0.499 µM | pIC50 (HOP-92): 6.30 | LC50 (HOP-92): > 32.5 µM | TGI (HOP-92): 1.48 µM

From ChEMBL document CHEMBL2440076, “New triarylpyrazoles as broad-spectrum anticancer agents: design, synthesis, and biological evaluation” (Eur J Med Chem, 2013)
